The source made the active and inactive calls.
What was measured:
HEK293 [1] = experiment: inhibition of NOD1-driven NF-kB reporter – cell-based, luminescence, uHTS, primary screen (AID 1578); format: functional; conditions: Homo sapiens
HEK293 [2] = experiment: cells; format: functional, cell-based; conditions: Homo sapiens
[3] = Luminescence Cell-Based Dose Retest to Confirm Inhibitors of Cancer Stem Cells. [Related pubchem assays (depositor defined):AID2717, AID2721]; format: functional; conditions: Homo sapiens
HEK293 [4] = experiment: cells; format: functional, cell-based; conditions: Homo sapiens; remark: listed apart in the source
[5] = biological target: Nucleotide-binding oligomerization domain-containing protein 2 (Homo sapiens, UniProt Q9HC29); experiment: inhibition of NOD2-driven NF-kB reporter – cell-based, luminescence, uHTS, HEK293 (AID 1566); format: functional
HEK293 [6] = experiment: cells; format: functional, cell-based; conditions: Homo sapiens; remark: listed apart in the source
HEK293 [7] = experiment: NOD2 signaling inhibitors in MDP-stimulated cells, cell-based, uHTS, luminescence (AID 2001); format: functional; conditions: Homo sapiens
[8] = biological target: T1, Microphthalmia-associated transcription factor (Homo sapiens, UniProt O75030); experiment: reducers of TRPM1 reporter luminescence, concentration series – cell-based, SK-MEL-5, cherry-picked, set 3, MITF inhibitor project, dose response (AID 493073); format: functional;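 note: SK-MEL-5 melanoma cells with luciferase driven by the MITF target TRPM1 promoter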
T1 sequence (O75030 whole entry): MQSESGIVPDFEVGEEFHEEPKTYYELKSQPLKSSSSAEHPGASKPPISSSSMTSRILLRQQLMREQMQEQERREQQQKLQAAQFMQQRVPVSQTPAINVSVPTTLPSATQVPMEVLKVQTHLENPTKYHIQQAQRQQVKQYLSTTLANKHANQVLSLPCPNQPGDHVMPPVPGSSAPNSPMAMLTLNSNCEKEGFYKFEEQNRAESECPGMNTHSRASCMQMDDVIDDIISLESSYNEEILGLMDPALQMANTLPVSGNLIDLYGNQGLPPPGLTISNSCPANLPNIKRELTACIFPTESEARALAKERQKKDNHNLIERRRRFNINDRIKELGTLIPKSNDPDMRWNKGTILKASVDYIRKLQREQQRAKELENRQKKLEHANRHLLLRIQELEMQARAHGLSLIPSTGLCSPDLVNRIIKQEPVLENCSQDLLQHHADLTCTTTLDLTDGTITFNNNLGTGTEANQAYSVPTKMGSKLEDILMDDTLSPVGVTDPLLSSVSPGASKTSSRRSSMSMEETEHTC

H9c2 = experiment: cells; format: functional, cell-based; conditions: Rattus norvegicus, H9c2, Myocardium;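 note: confirmatory concentration-response retest of ultra-high-throughput screening hits for modulation of myocardial damage; cell death induced by hydrogen peroxide oxidative stress; compound pretreatment for 60 min then peroxide exposure for 2 h; potency is for protecting the cells against peroxide damage rather than for killing them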
[9] = biological target: T2, Short transient receptor potential channel 4 (Mus musculus, UniProt Q9QUQ5); experiment: calcium entry via TRPC4 opening agents – cell-based, HEK293 TRPC4/mu-opioid, Fluo-4 calcium, dose response (AID 434937); format: functional
T2 sequence (Q9QUQ5 whole entry): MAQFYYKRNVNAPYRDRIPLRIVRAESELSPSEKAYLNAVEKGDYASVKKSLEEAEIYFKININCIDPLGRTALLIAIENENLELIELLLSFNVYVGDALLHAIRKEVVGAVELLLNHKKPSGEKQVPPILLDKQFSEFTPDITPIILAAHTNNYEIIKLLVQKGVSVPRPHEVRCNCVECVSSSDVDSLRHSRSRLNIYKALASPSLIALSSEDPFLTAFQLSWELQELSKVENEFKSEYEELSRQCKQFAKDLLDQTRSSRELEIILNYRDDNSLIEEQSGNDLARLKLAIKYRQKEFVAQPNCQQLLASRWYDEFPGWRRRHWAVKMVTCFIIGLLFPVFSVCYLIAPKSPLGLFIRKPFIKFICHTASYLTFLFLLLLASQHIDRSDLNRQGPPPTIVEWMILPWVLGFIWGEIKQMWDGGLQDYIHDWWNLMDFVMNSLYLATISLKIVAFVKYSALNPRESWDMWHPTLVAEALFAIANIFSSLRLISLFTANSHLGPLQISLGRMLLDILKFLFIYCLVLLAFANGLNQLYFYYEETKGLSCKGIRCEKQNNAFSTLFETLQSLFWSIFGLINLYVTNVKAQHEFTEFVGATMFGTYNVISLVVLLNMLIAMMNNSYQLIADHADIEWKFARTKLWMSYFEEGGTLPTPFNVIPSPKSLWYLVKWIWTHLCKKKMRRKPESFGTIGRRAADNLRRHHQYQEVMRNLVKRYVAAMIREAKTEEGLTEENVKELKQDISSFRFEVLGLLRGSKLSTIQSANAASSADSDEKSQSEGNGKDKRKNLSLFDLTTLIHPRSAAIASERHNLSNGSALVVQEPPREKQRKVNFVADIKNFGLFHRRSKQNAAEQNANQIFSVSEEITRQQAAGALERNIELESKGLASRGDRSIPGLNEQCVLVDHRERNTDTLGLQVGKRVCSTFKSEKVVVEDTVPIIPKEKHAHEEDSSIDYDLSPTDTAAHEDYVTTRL

[10] = biological target: T3, Rac GTPase-activating protein 1 (Homo sapiens, UniProt Q9H0H5); experiment: blockers of MgcRacGAP-driven Rac1 GTP hydrolysis – biochemical, ADP Hunter fluorescence, primary and confirmatory, confirmation (AID 624330); format: functional
T3 sequence (Q9H0H5 whole entry): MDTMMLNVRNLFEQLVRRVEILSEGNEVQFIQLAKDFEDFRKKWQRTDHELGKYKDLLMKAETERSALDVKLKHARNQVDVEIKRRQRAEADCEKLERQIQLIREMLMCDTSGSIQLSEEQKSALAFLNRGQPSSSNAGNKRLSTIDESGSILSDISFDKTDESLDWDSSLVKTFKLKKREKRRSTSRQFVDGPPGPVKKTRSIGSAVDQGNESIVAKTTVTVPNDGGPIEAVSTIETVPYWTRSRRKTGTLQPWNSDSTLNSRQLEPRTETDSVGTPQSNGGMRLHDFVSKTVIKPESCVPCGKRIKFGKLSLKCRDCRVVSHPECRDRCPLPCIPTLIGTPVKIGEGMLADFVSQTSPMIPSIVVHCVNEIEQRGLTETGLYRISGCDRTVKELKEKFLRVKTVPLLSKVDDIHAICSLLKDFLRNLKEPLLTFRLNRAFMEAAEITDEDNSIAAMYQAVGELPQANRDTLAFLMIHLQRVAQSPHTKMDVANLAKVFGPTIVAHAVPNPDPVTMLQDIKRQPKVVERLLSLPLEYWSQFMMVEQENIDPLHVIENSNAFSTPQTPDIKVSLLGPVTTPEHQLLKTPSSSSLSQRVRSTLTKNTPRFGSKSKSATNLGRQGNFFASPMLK

[11] = viability loss in HeLa cells – cytotoxicity control for MgcRacGAP inhibitor project, dose response (AID 624300); format: functional
[12] = biological target: T4, Voltage-gated N-type calcium channel alpha-1B subunit/Amyloid beta A4 precursor protein-binding family A member 1 (Homo sapiens, UniProt Q00975+Q02410); format: protein assay
[13] = biological target: T4, Voltage-gated N-type calcium channel alpha-1B subunit/Amyloid beta A4 precursor protein-binding family A member 1; format: protein assay; remark: listed apart in the source
[14] = biological target: T5, Eukaryotic translation initiation factor 2-alpha kinase 3 (Homo sapiens, UniProt Q9NZJ5); experiment: Dose response cell-based high-throughput screening assay to measure PERK inhibition. [Related pubchem assays: 1416 ]; format: functional
T5 sequence (Q9NZJ5 whole entry): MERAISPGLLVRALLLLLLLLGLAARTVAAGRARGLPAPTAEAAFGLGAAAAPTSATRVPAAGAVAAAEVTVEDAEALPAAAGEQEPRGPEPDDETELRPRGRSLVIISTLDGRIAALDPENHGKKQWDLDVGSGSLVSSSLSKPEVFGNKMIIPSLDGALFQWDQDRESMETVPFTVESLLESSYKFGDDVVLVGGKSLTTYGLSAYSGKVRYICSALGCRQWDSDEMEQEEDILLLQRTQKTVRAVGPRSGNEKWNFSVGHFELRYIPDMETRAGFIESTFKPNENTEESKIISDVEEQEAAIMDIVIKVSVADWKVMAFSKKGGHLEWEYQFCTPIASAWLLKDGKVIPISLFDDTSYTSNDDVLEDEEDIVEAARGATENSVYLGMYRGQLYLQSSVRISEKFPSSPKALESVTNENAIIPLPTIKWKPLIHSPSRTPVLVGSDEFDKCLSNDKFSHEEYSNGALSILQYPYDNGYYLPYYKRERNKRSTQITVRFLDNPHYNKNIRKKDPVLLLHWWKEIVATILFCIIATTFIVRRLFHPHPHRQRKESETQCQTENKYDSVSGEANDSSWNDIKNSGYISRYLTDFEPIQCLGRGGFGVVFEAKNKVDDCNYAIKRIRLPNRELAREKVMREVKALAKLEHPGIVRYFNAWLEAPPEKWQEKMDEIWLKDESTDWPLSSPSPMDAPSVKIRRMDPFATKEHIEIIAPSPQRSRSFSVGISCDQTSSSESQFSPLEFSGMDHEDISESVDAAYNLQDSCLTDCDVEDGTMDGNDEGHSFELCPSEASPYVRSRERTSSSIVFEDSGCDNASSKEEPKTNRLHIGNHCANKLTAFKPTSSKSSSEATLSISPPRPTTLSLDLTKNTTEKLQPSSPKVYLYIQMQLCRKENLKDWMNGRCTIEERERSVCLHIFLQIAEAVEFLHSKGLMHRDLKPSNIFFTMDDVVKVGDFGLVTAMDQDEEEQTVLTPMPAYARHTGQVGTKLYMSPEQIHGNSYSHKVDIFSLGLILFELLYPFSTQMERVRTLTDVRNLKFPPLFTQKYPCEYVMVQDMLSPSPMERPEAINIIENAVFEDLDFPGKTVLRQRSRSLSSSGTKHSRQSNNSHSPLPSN

[15] = biological target: T6, High affinity choline transporter 1 (Homo sapiens, UniProt Q9GZV3); experiment: human choline transporter blockers, potency – cell-based, 5-point CRC, membrane potential dye, dose response (AID 504840); format: functional
T6 sequence (Q9GZV3 whole entry): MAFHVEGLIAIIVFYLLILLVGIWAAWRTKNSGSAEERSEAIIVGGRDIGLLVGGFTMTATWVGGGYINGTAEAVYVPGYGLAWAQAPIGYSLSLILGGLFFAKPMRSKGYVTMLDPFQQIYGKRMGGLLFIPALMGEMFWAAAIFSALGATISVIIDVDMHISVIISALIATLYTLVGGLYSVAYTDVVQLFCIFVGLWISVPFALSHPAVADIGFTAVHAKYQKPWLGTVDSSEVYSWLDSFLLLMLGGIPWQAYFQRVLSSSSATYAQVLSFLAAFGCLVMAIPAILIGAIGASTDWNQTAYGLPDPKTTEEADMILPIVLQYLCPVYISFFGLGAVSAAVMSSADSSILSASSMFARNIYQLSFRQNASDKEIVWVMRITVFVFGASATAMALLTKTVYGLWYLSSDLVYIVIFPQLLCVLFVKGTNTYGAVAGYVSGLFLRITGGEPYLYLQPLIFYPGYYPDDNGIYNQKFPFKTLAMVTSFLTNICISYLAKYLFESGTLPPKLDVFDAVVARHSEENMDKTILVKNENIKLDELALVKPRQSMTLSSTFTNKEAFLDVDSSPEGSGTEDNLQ

[16] = biological target: T5, Eukaryotic translation initiation factor 2-alpha kinase 3; experiment: Counterscreen assay for PERK inhibitors: Dose response cell-based high throughput screening assay to measure inhibition of PERK at 6 hours. [Related pubchem assays: 1522, 1416 ]; format: functional
[17] = biological target: T6, High affinity choline transporter 1; experiment: human choline transporter blockers, potency – cell-based, 10-point CRC, membrane potential dye, dose response (AID 588401); format: functional;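 note: membrane potential dye fluorescence of choline-evoked depolarization via CHT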
[18] = Luminescence Cell-Based Dose Confirmation HTS to Identify Inhibitors of Platelet Dense Granule Release. [Related pubchem assays: 1663 (Primary HTS), 1678 (Summary of Project)]; format: functional
[19] = biological target: Luciferin 4-monooxygenase (Photinus pyralis, UniProt P08659); experiment: inhibition of purified Photinus pyralis luciferase – biochemical, luminescence, dose response (AID 1891)
[20] = viability of uninfected HEp-2 cells – cell-based, HTS, cytotoxicity control for RSV inhibitor project, dose response (AID 2410); format: functional; conditions: human respiratory syncytial virus

Chain of Nucleotide-binding oligomerization domain-containing protein 2 (Q9HC29 whole entry, the tested form may be a part): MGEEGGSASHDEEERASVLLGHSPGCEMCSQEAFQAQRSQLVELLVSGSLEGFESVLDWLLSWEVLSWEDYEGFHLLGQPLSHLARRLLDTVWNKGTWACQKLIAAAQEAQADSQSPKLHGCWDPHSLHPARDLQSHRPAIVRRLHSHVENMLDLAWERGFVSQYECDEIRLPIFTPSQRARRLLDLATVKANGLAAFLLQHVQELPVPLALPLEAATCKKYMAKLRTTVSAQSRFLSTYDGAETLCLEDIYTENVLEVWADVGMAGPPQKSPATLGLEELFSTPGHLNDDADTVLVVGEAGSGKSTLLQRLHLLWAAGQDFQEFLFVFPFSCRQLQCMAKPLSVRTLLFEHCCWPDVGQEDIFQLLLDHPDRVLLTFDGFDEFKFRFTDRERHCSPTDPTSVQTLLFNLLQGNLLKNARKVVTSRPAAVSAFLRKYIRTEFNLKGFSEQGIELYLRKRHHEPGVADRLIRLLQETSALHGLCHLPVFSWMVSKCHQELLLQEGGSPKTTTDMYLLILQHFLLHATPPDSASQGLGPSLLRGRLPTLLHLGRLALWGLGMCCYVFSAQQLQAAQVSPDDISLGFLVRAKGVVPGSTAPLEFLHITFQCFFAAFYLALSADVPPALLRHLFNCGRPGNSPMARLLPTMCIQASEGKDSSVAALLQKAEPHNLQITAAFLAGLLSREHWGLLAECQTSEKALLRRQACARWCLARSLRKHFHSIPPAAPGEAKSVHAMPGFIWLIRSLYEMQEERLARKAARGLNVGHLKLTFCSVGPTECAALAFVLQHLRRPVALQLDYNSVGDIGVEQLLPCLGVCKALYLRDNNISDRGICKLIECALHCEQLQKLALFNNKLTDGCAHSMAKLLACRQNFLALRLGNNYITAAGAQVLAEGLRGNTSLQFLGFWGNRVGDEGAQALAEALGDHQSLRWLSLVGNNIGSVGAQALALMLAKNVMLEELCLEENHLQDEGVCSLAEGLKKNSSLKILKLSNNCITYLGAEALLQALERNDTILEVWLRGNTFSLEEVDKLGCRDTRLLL
T4 sequence (Q00975 whole entry): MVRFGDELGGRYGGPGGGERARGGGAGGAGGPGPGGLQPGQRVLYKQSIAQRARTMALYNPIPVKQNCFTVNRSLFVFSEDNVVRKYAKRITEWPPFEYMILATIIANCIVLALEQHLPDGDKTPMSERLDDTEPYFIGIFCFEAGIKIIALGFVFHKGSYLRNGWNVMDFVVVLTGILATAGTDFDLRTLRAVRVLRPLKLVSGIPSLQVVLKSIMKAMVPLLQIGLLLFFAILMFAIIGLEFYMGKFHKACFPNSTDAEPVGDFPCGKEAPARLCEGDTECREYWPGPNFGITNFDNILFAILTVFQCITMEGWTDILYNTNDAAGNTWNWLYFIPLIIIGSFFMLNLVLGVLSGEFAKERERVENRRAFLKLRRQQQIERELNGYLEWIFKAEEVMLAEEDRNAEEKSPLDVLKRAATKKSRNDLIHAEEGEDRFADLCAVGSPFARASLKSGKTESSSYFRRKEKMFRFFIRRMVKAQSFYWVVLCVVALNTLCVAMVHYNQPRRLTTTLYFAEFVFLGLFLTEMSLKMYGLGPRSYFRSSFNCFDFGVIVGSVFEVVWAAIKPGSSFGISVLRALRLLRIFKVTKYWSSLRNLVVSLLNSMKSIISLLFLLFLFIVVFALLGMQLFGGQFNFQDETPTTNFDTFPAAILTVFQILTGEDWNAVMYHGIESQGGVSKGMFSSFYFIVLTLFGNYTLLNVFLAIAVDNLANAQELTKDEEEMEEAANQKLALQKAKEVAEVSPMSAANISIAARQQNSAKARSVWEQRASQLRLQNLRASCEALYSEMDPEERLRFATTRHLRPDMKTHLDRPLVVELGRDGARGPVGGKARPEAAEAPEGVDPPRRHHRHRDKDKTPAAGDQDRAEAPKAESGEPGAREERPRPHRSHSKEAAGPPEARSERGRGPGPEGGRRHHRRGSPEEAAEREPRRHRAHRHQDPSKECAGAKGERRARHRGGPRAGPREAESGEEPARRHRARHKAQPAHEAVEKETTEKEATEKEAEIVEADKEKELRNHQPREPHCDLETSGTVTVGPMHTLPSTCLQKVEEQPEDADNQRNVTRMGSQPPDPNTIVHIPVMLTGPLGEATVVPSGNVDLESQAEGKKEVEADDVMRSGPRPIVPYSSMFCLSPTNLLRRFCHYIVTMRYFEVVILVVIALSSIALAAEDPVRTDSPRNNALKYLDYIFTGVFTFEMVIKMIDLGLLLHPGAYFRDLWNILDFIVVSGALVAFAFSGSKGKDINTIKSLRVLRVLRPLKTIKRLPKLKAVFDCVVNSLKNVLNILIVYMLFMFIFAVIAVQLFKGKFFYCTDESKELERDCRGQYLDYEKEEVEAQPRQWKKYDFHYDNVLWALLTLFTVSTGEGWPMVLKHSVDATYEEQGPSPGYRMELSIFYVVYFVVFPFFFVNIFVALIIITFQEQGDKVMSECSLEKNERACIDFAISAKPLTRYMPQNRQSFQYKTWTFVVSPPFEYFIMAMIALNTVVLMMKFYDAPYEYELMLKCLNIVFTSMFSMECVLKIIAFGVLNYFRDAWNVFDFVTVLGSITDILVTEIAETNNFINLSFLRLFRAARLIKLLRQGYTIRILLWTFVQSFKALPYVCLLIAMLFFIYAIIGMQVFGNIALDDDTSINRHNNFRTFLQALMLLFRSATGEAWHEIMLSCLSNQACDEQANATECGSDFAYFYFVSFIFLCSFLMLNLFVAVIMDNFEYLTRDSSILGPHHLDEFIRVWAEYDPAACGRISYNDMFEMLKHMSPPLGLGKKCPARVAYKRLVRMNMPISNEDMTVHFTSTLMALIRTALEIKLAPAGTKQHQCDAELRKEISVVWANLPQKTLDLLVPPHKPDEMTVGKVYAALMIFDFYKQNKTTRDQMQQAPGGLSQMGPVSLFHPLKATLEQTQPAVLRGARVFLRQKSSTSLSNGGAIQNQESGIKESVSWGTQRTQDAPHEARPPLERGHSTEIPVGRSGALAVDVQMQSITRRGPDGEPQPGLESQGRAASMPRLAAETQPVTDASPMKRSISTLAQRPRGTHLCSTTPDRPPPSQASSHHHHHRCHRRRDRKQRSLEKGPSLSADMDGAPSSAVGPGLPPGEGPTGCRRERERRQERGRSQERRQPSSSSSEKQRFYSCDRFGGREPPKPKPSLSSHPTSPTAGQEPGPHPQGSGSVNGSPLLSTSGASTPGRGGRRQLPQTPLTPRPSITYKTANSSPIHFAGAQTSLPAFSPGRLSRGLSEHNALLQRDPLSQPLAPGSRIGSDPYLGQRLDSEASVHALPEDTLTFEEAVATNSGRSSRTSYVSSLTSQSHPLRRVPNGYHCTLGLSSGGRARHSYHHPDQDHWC
T4 sequence (Q02410 whole entry): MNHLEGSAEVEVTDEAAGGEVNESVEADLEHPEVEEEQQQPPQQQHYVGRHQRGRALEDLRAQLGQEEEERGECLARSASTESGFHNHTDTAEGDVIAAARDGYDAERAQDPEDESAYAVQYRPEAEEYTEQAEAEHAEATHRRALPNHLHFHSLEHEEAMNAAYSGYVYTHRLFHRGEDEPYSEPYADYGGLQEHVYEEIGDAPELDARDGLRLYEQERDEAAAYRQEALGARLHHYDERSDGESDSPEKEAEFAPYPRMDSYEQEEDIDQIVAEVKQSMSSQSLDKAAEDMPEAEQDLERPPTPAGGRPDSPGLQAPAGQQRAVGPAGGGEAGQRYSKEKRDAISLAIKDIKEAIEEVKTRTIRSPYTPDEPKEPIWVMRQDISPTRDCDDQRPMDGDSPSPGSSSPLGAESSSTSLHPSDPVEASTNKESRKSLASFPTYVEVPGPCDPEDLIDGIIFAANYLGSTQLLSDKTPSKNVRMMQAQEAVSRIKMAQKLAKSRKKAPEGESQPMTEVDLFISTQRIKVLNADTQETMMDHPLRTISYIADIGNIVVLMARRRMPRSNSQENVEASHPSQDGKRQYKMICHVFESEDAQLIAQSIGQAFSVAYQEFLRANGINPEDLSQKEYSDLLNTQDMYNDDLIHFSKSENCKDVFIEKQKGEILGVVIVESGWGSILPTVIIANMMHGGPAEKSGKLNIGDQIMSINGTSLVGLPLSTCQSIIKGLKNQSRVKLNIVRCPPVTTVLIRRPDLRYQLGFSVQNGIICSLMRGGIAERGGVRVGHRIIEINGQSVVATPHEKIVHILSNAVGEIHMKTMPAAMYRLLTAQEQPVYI
Chain of Luciferin 4-monooxygenase (P08659 whole entry): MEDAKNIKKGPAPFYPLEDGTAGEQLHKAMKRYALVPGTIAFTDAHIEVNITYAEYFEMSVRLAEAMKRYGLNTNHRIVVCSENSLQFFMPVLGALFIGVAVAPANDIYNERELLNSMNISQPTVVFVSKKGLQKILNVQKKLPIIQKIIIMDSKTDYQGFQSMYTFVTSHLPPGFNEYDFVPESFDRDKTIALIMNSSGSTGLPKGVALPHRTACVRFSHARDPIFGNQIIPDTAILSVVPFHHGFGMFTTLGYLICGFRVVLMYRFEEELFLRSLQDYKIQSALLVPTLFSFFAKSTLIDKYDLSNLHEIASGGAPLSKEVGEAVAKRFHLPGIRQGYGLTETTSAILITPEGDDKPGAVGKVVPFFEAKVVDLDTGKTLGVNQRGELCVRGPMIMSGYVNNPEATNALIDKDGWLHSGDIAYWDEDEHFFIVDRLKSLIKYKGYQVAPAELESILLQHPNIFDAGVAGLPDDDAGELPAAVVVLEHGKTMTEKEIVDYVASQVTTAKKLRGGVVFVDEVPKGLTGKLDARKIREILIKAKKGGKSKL

Compound	EC50 (HEK293 [1])	IC50 (HEK293 [2])	IC50 (HEK293 [4])	EC50 [5]	IC50 (HEK293 [6])	IC50 (HEK293 [7])	IC50 (H9c2)	EC50 [9]	further results
COc1cc(Br)cc(/C=C/c2ccc3cccc(O)c3n2)c1O	5.78 µM (active)	8.18 µM (active)	> 20 µM (inactive)	> 20 µM (inactive)	> 20 µM (inactive)	6.96 µM (inactive)			AC50 [3]: 1.44 µM (active)
COc1ccc2cc3cc(C(=O)NCCc4ccc(OC)c(OC)c4)oc3nc2c1	9.01 µM (active)	4.8 µM (active)	> 20 µM (inactive)	7.83 µM (active)	18.9 µM (active)	5.18 µM (active)	> 79 µM (inactive)		AC50 [8]: 16.2 µM (active)
CCN1CCN(c2ccc(S(=O)(=O)N3CCCCC3)cc2NC(=O)c2cccc(C)c2[N+](=O)[O-])CC1								2.99 µM (active)	
COc1cc(/C=C/c2nc3ccccc3c(=O)n2-c2ccccc2O)ccc1O							9.09 µM (active)		IC50 [10]: 40.6 µM (active); CC50 [11]: 94 µM (active); IC50 [12]: > 56.8 µM (not active); IC50 [13]: > 50 µM (inactive)
Nc1nc(Cl)nc2c1ncn2[C@@H]1O[C@H](CO)[C@@H](O)[C@H]1O									EC50 [14]: > 55.7 µM (not active); IC50 [15]: 0.74 µM (active); EC50 [16]: > 55.7 µM (not active); IC50 [17]: 0.336 µM (active); EC50 [18]: < 0.701 µM (active); EC50 [19]: > 112 µM (not active)
CC(C)(C)c1cc(O)c(C(C)(C)C)cc1O								0.376 µM (active)	CC50 [20]: > 50 µM (active); IC50 (cells): 37.2 µM (active)
